Reference: ChEMBL document CHEMBL5579851, “Synthesis and antifungal evaluation of novel triazole derivatives bearing a pyrazole-methoxyl moiety” (Eur J Med Chem, 2024)
Values after ≈ are worked out from the molar mass of the structure shown. Active and inactive are the calls of the source. The rule behind the calls is not given here.

Key:
Candida albicans [1] = assay: Antifungal activity against Candida albicans SC5314 assessed as inhibition of fungal growth incubated for 48 hrs by CLSI based broth microdilution assay; type: functional
Candida albicans [2] = assay: Antifungal activity against Candida albicans 10231 assessed as inhibition of fungal growth incubated for 48 hrs by CLSI based broth microdilution assay; type: functional
Cryptococcus neoformans = assay: Antifungal activity against Cryptococcus neoformans 32609 assessed as inhibition of fungal growth incubated for 72 hrs by CLSI based broth microdilution assay; type: functional
Nakaseomyces glabratus = assay: Antifungal activity against Candida glabrata 537 assessed as inhibition of fungal growth incubated for 48 hrs by CLSI based broth microdilution assay; type: functional
Candida parapsilosis = assay: Antifungal activity against Candida parapsilosis 22019 assessed as inhibition of fungal growth incubated for 48 hrs by CLSI based broth microdilution assay; type: functional; conditions: Lodderomyces parapsilosis
Pichia kudriavzevii = assay: Antifungal activity against Candida krusei 4996 assessed as inhibition of fungal growth incubated for 48 hrs by CLSI based broth microdilution assay; type: functional
Candida tropicalis = assay: Antifungal activity against Candida tropicalis 8915 assessed as inhibition of fungal growth incubated for 48 hrs by CLSI based broth microdilution assay; type: functional
Candida albicans [3] = assay: Antifungal activity against fluconazole-resistant Candida albicans 901 assessed as inhibition of fungal growth incubated for 48 hrs by CLSI based broth microdilution assay; type: functional
Candida albicans [4] = assay: Antifungal activity against fluconazole-resistant Candida albicans 904 assessed as inhibition of fungal growth incubated for 48 hrs by CLSI based broth microdilution assay; type: functional
[Candida] auris [5] = Antifungal activity against fluconazole-resistant Candida auris 891 assessed as inhibition of fungal growth incubated for 48 hrs by CLSI based broth microdilution assay; type: functional; conditions: Candidozyma auris
[Candida] auris [6] = Antifungal activity against fluconazole-resistant Candida auris 918 assessed as inhibition of fungal growth incubated for 48 hrs by CLSI based broth microdilution assay; type: functional; conditions: Candidozyma auris
[Candida] auris [7] = Antifungal activity against fluconazole-resistant Candida auris 919 assessed as inhibition of fungal growth incubated for 48 hrs by CLSI based broth microdilution assay; type: functional; conditions: Candidozyma auris
Saccharomyces cerevisiae [8] = assay: Antifungal activity against recombinant Saccharomyces cerevisiae Y525 overexpressing CaMdr1 assessed as inhibition of fungal growth incubated for 48 hrs by CLSI based broth microdilution assay; type: functional
Saccharomyces cerevisiae [9] = assay: Antifungal activity against recombinant Saccharomyces cerevisiae Y570 overexpressing CaCdr1 assessed as inhibition of fungal growth incubated for 48 hrs by CLSI based broth microdilution assay; type: functional
Saccharomyces cerevisiae [10] = assay: Antifungal activity against recombinant Saccharomyces cerevisiae Y2765 overexpressing CauMdr1 assessed as inhibition of fungal growth incubated for 48 hrs by CLSI based broth microdilution assay; type: functional
Saccharomyces cerevisiae [11] = assay: Antifungal activity against recombinant Saccharomyces cerevisiae Y2766 overexpressing CauCdr1 assessed as inhibition of fungal growth incubated for 48 hrs by CLSI based broth microdilution assay; type: functional
Saccharomyces cerevisiae [12] = assay: Antifungal activity against recombinant Saccharomyces cerevisiae Y2411 overexpressing ScErg11 assessed as inhibition of fungal growth incubated for 48 hrs by CLSI based broth microdilution assay; type: functional
Saccharomyces cerevisiae [13] = assay: Antifungal activity against recombinant Saccharomyces cerevisiae Y2300 overexpressing ScErg11 assessed as inhibition of fungal growth incubated for 48 hrs by CLSI based broth microdilution assay; type: functional
Saccharomyces cerevisiae [14] = assay: Antifungal activity against recombinant Saccharomyces cerevisiae Y2462 overexpressing ScErg11/ScNcp1 assessed as inhibition of fungal growth incubated for 48 hrs by CLSI based broth microdilution assay; type: functional
Saccharomyces cerevisiae [15] = assay: Antifungal activity against recombinant Saccharomyces cerevisiae Y2459 overexpressing CaErg11/CaCpr assessed as inhibition of fungal growth incubated for 48 hrs by CLSI based broth microdilution assay; type: functional
Saccharomyces cerevisiae [16] = assay: Antifungal activity against recombinant Saccharomyces cerevisiae Y2374 overexpressing CgErg11 assessed as inhibition of fungal growth incubated for 48 hrs by CLSI based broth microdilution assay; type: functional
Saccharomyces cerevisiae [17] = assay: Antifungal activity against recombinant Saccharomyces cerevisiae Y2721 overexpressing CpErg11/CpCpr assessed as inhibition of fungal growth incubated for 48 hrs by CLSI based broth microdilution assay; type: functional
Saccharomyces cerevisiae [18] = assay: Antifungal activity against recombinant Saccharomyces cerevisiae Y2767 overexpressing CauErg11 assessed as inhibition of fungal growth incubated for 48 hrs by CLSI based broth microdilution assay; type: functional
Saccharomyces cerevisiae [19] = assay: Antifungal activity against recombinant Saccharomyces cerevisiae Y2711 overexpressing CnErg11 assessed as inhibition of fungal growth incubated for 48 hrs by CLSI based broth microdilution assay; type: functional
Saccharomyces cerevisiae [20] = assay: Antifungal activity against recombinant Saccharomyces cerevisiae Y2301 overexpressing ScErg11 Y140F mutant assessed as inhibition of fungal growth incubated for 48 hrs by CLSI based broth microdilution assay; type: functional
Saccharomyces cerevisiae [21] = assay: Antifungal activity against recombinant Saccharomyces cerevisiae Y2513 overexpressing ScErg11 Y140H mutant assessed as inhibition of fungal growth incubated for 48 hrs by CLSI based broth microdilution assay; type: functional
Saccharomyces cerevisiae [22] = assay: Antifungal activity against recombinant Saccharomyces cerevisiae Y2716 overexpressing CpErg11 Y132F mutant/ CpCpr assessed as inhibition of fungal growth incubated for 48 hrs by CLSI based broth microdilution assay; type: functional
Saccharomyces cerevisiae [23] = assay: Antifungal activity against recombinant Saccharomyces cerevisiae Y2768 overexpressing CauErg11 T132F mutant assessed as inhibition of fungal growth incubated for 48 hrs by CLSI based broth microdilution assay; type: functional
Saccharomyces cerevisiae [24] = assay: Antifungal activity against recombinant Saccharomyces cerevisiae Y2769 overexpressing CauErg11 K143R mutant assessed as inhibition of fungal growth incubated for 48 hrs by CLSI based broth microdilution assay; type: functional
Candida albicans [25] = assay: Antifungal activity against Candida albicans SC5314 assessed as inhibition of fungal growth at 0.125 ug/ml after 12 hrs by TECAN plate reader analysis; type: functional, organism-based; conditions: dose 0.125 µg/ml
Candida albicans [26] = assay: Antifungal activity against Candida albicans SC5314 assessed as inhibition of fungal growth at 2 ug/ml after 36 hrs by TECAN plate reader analysis; type: functional, organism-based; conditions: dose 2.0 µg/ml
Candida albicans [27] = assay: Antifungal activity against Candida albicans SC5314 assessed as inhibition of hyphae formation at 0.0625 to 0.5 ug/ml after 3 hrs by inverted microscopic analysis; type: functional, organism-based; conditions: dose 0.0625-0.5 µg/ml
Candida albicans [28] = assay: Antifungal activity against Candida albicans SC5314 assessed as inhibition of hyphae length at 0.0625 to 0.5 ug/ml after 3 hrs by inverted microscopic analysis; type: functional, organism-based; conditions: dose 0.0625-0.5 µg/ml
Candida albicans [29] = assay: Antifungal activity against Candida albicans SC5314 assessed as inhibition of hyphae length at 1 ug/ml after 3 hrs by inverted microscopic analysis; type: functional, organism-based; conditions: dose 1.0 µg/ml
Candida albicans [30] = assay: Antifungal activity against Candida albicans SC5314 assessed as inhibition of hyphae formation by measuring pseudohyphae at 1 ug/ml after 3 hrs by inverted microscopic analysis; type: functional, organism-based; conditions: dose 1.0 µg/ml
Candida albicans [31] = assay: Antibiofilm activity against Candida albicans SC5314 assessed as inhibition of biofilm formation at 64 ug/mL incubated for 24 hrs by XTT assay relative to control; type: functional
Candida albicans [32] = assay: Antibiofilm activity against Candida albicans SC5314 assessed as increase in matured biofilm distruption at 64 ug/ml incubated for 24 hrs by XTT assay relative to control; type: functional; conditions: dose 64 µg/ml
[33] = target: T1, Lanosterol 14-alpha demethylase (Candida albicans (strain SC5314 / ATCC MYA-2876) (Yeast), UniProt P10613); assay: Inhibition of CYP51 in Candida albicans SC5314 assessed as ergosterol level at 0.5 ug/ml after 8 hrs by GC-MS analysis (reference value: 86.2 %); set-up: scale not given: the % may be the effect or the level left; conditions: at 0.5 µg/mL
T1 sequence (P10613 whole entry): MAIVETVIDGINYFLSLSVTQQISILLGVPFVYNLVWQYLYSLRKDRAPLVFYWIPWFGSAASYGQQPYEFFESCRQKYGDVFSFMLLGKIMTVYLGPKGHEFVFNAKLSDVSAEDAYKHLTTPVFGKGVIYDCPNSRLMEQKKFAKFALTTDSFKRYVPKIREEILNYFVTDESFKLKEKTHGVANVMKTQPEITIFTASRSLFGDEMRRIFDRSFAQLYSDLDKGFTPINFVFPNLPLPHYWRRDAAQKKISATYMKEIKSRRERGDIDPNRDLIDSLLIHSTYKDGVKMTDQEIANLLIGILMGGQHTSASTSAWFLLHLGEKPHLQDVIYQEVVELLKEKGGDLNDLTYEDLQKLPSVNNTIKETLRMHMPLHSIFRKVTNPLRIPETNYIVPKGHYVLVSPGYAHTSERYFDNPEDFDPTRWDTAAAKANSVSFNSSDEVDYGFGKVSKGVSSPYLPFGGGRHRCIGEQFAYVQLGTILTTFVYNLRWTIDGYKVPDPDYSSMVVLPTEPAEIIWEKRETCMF

[34] = target: T1, Lanosterol 14-alpha demethylase; assay: Inhibition of CYP51 in Candida albicans SC5314 assessed as lanosterol level at 0.5 ug/ml after 8 hrs by GC-MS analysis (reference value: 5.9 %); set-up: scale not given: the % may be the effect or the level left; conditions: at 0.5 µg/mL
[35] = target: T1, Lanosterol 14-alpha demethylase; assay: Inhibition of CYP51 in Candida albicans SC5314 assessed as eburicol level at 0.5 ug/ml after 8 hrs by GC-MS analysis relative to control; set-up: scale not given: the % may be the effect or the level left; conditions: at 0.5 µg/mL
[36] = target: T1, Lanosterol 14-alpha demethylase; assay: Inhibition of CYP51 in Candida albicans SC5314 assessed as obtusifoliol level at 0.5 ug/ml after 8 hrs by GC-MS analysis relative to control; set-up: scale not given: the % may be the effect or the level left; conditions: at 0.5 µg/mL
[37] = target: T1, Lanosterol 14-alpha demethylase; assay: Inhibition of CYP51 in Candida albicans SC5314 assessed as 14alpha-methylfecosterol level at 0.5 ug/ml after 8 hrs by GC-MS analysis relative to control; set-up: scale not given: the % may be the effect or the level left; conditions: at 0.5 µg/mL
Cell membrane [38] = assay: Induction of membrane permeabilization in Candida albicans SC5314 assessed as increase in fluorescence at 0.5 ug/ml incubated for 8 hrs by propidium iodide staining based fluorescence microscopic analysis; conditions: dose 0.5 µg/ml
Cell membrane [39] = assay: Induction of membrane permeabilization in Candida albicans SC5314 assessed as increase in fluorescence at 4 ug/ml incubated for 8 hrs by propidium iodide staining based fluorescence microscopic analysis; conditions: dose 4.0 µg/ml
[40] = Cytotoxicity against HUVEC cells assessed as cell viability at 128 ug/ml incubated for 24 hrs by CCK-8 assay relative to control; type: toxicity, cell-based; conditions: human, at 128 µg/mL, read-out: Activity

**Q.** Which MIC (Candida albicans [1]) does the source give for OC(Cn1cncn1)(Cn1cncn1)c1ccc(F)cc1F [FLUCONAZOLE] here?
**A.** 0.5 µg/mL (≈ 1.63 µM)

**Q.** And the MIC (Candida albicans [2])?
**A.** > 64 µg/mL

**Q.** What about the MIC (Cryptococcus neoformans) of the same compound?
**A.** 2 µg/mL (≈ 6.53 µM)

**Q.** What about the MIC (Nakaseomyces glabratus) of the same compound?
**A.** 1 µg/mL (≈ 3.27 µM)

**Q.** And the MIC (Candida parapsilosis)?
**A.** 4 µg/mL (≈ 13.1 µM)

**Q.** And the MIC (Pichia kudriavzevii)?
**A.** 64 µg/mL (≈ 209 µM)

**Q.** And the MIC (Candida tropicalis)?
**A.** > 64 µg/mL

**Q.** What about the MIC (Candida albicans [3]) of the same compound?
**A.** > 256 µg/mL

**Q.** And the MIC (Candida albicans [4])?
**A.** > 256 µg/mL

**Q.** What about the MIC ([Candida] auris [5]) of the same compound?
**A.** > 256 µg/mL

**Q.** And the MIC ([Candida] auris [6])?
**A.** > 256 µg/mL

**Q.** And the MIC ([Candida] auris [7])?
**A.** > 256 µg/mL

**Q.** What about the MIC (Saccharomyces cerevisiae [8]) of the same compound?
**A.** > 64 µg/mL

**Q.** What about the MIC (Saccharomyces cerevisiae [9]) of the same compound?
**A.** > 64 µg/mL

**Q.** What about the MIC (Saccharomyces cerevisiae [10]) of the same compound?
**A.** 64 µg/mL

**Q.** And the MIC (Saccharomyces cerevisiae [11])?
**A.** > 64 µg/mL

**Q.** What about the MIC (Saccharomyces cerevisiae [12]) of the same compound?
**A.** 1 µg/mL

**Q.** And the MIC (Saccharomyces cerevisiae [13])?
**A.** 4 µg/mL

**Q.** And the MIC (Saccharomyces cerevisiae [14])?
**A.** 8 µg/mL

**Q.** What about the MIC (Saccharomyces cerevisiae [15]) of the same compound?
**A.** 2 µg/mL

**Q.** What about the MIC (Saccharomyces cerevisiae [16]) of the same compound?
**A.** 4 µg/mL

**Q.** And the MIC (Saccharomyces cerevisiae [17])?
**A.** 4 µg/mL

**Q.** And the MIC (Saccharomyces cerevisiae [18])?
**A.** 4 µg/mL

**Q.** And the MIC (Saccharomyces cerevisiae [19])?
**A.** 0.5 µg/mL

**Q.** And the MIC (Saccharomyces cerevisiae [20])?
**A.** 4 µg/mL

**Q.** And the MIC (Saccharomyces cerevisiae [21])?
**A.** 4 µg/mL

**Q.** What about the MIC (Saccharomyces cerevisiae [22]) of the same compound?
**A.** 8 µg/mL

**Q.** And the MIC (Saccharomyces cerevisiae [23])?
**A.** 64 µg/mL

**Q.** What about the MIC (Saccharomyces cerevisiae [24]) of the same compound?
**A.** 32 µg/mL

**Q.** What about the inhibition (Candida albicans [25]) of the same compound?
**A.** inactive

**Q.** And the inhibition (Candida albicans [26])?
**A.** inactive

**Q.** What about the inhibition (Candida albicans [27]) of the same compound?
**A.** inactive

**Q.** What about the inhibition (Candida albicans [28]) of the same compound?
**A.** inactive

**Q.** And the inhibition (Candida albicans [29])?
**A.** Active

**Q.** What about the inhibition (Candida albicans [30]) of the same compound?
**A.** Active

**Q.** And the inhibition at 64 µg/mL (Candida albicans [31])?
**A.** ~28%

**Q.** And the Activity (Candida albicans [32])?
**A.** 38%

**Q.** And the Activity [33]?
**A.** 39.8%

**Q.** And the Activity [34]?
**A.** 38%

**Q.** What about the Activity [35] of the same compound?
**A.** 2%

**Q.** And the Activity [36]?
**A.** 2%

**Q.** And the Activity [37]?
**A.** 20%

**Q.** And the Activity (Cell membrane [38])?
**A.** inactive

**Q.** And the Activity (Cell membrane [39])?
**A.** Active

**Q.** And the viability at 24 h, 128 ug/ml [40]?
**A.** 83%
